What follows are compounds tested against T1, HIV-1 protease (Human immunodeficiency virus type 1 group M subtype B, UniProt P04585) (assay: biochemical). Conditions: 16 h incubation at room temperature, MES-ALB buffer pH 5.5; normalized to a positive control.
T1 construct: made in house; host or cells: E. coli K12 L507/pHP10D (NRRL B-18560)
Protocol: A culture of E. coli K12 L507/pHP10D was grown to mid-log phase at 32° C. in LB media containing 12.5 μg/ml tetracycline. The cultivation temperature was quickly elevated to 40° C. to induce gene expression, and the cells were allowed to grow for 2.5 hours at this temperature before the culture was quickly chilled on ice. The cells were centrifuged and the cell pellet was resuspended in 20 mL 50 mmol MES buffer (pH 6.0) containing 1 mmol EDTA, 1 mmol DTT, 1 mmol PMSF and 10% glycerol ("Buffer A"). Cells were lysed by sonication using a Fischer Model 300 Dismembrator and a microtip probe. Following centrifugation at 27,000 x g, the supernatant was diluted to a total volume of 60 mL with Buffer A and loaded onto a 2.0×19 cm QAE-Sepharose column (1 mL/min, 4° C.), that had been equilibrated in Buffer A. The column was washed isocratically for 180 min and then eluted with a gradient eluent of 0-1.0M NaCl in Buffer A over 120 min. Enzymatic activity was measured by HPLC using the synthetic peptide SQNYPIV as described in Margolin et al., Biochem. Biophys. Res. Commun., […], 554-560 (1990); the production of the p1 peptide (SQNY) was measured.
N^a -Biotin-[…]N^e -FITC)-OH SEQ ID NO: 1
The following buffers and solutions are used in the Fluorescence HIV-1 Protease Inhibitor Assay:
To each well of a round bottom, 96-well plate is added 20 μL of the Enzyme Solution followed by 10 μL of the compound to be evaluated in a 20% aqueous dimethylsulfoxide solution. Purified HIV-1 protease was obtained as described above. The resulting solution is incubated for one hour at room temperature and then 20 μL of a solution containing the substrate, N^a -Biotin-[…]N^e-FITC)-OH, in MES-ALB buffer ([…]) is added to each well. The solutions are then incubated for 16 hours at room temperature and then each well is diluted with 150 μL of MES-ALB buffer.
To each well of a second round bottom, 96-well Pandex plate is added 25 uL of the Avidin Coated Beads Solution. Then, to each well is added 25 μL of the diluted incubation solutions, prepared above. The solutions are mixed thoroughly and the plates are loaded into a Pandex® machine, washed, evacuated and read. Sample detection was performed by excitation at 485 nm, reading the resulting epifluorescence at 535 nm.

Row | Fluorescence Assay IC50 [µg/mL] | SMILES
1 | 0.497 | CC(C)(C)C(NC(=O)OCc1cccnc1)C(=O)NC(Cc1ccccc1)C1OC1C(Cc1ccccc1)NC(=O)C(NC(=O)OCc1cccnc1)C(C)(C)C [Example 23, 1,6-Diphenyl-2(S),5(S)-di[N-[2(S)-N(pyrid-3-ylmethoxycarbonyl)amino-3,3-dimethylbutanoyl]amino]-3,4-cis-epoxyhexane]

Same assay, conditions: 16 h incubation at room temperature, MES-ALB buffer pH 5.5; normalized to a positive control; read-out: Fluorescence Assay IC50 (converted)

Row | IC50 [nM] | SMILES
2 | 163 | CC[C@H](C)[C@H](NC(=O)N(C)Cc1ccccn1)C(=O)N[C@@H](Cc1ccccc1)[C@@H]1O[C@@H]1[C@H](Cc1ccccc1)NC(=O)[C@@H](NC(=O)N(C)Cc1ccccn1)[C@@H](C)CC [Example 24, 1,6-Diphenyl-2(S),5(S)-di[N-[2(S)-N[[N(methyl)-N(pyrid-2-ylmethyl)amino]carbonyl]amino-3(S)-methylpentanoyl]amino]-3,4-cis-epoxyhexane]

Same assay, conditions: at 1000 ng/ml; read-out: Fluorescence Assay, given as ICxx (1000): xx is the percent inhibition

Row | inhibition at 1 µg/mL [%] | SMILES
3 | 34 | CC[C@H](NC(=O)N(C)Cc1ccccn1)C(=O)N[C@@H](Cc1ccc2ccccc2c1)[C@@H]1O[C@@H]1[C@H](Cc1ccc2ccccc2c1)NC(=O)[C@H](CC)NC(=O)N(C)Cc1ccccn1 [Example 34, 1,6-Dinaphth-2-yl-2(S),5(S)-di[N-[2(S)-N-[[N(methyl)-N (pyrid-2-ylmethyl)amino]carbonyl]aminobutanoyl]amino]-3,4-cis-epoxyhexane]
4 | 23 | CC(C)[C@H](NC(=O)c1ccc2ccccc2n1)C(=O)N[C@@H](Cc1ccccc1)[C@@H]1O[C@@H]1[C@H](Cc1ccccc1)NC(=O)[C@@H](NC(=O)c1ccc2ccccc2n1)C(C)C [Example 26, 1,6-Diphenyl-2(S),5(S)-di[N-[2(S)-N(quinolin-2-ylcarbonyl)amino-3-methylbutanoyl]amino]-3,4-cis-epoxyhexane]
5 | 23 | CCC(NC(=O)N(C)Cc1ccccn1)C(=O)NC(CSc1ccc2ccccc2c1)C1OC1C(CSc1ccc2ccccc2c1)NC(=O)C(CC)NC(=O)N(C)Cc1ccccn1 [Example 35, 1,6-Dinaphth-2-ylthio-2(S),5(S)-di[N-[2(S)-N-[[N(methyl)-N (pyrid-2-ylmethyl)amino]carbonyl]aminobutanoyl]amino]-3,4-cis-epoxyhexane]

Same assay, conditions: read-out: Fluorescence Assay IC50 (converted)

Row | IC50 [nM] | SMILES
6 | 39.2 | Cc1cccc(COC(=O)N[C@H](C(=O)N[C@@H](Cc2ccccc2)[C@@H]2O[C@@H]2[C@H](Cc2ccccc2)NC(=O)[C@@H](NC(=O)OCc2cccc(C)n2)C(C)C)C(C)C)n1 [Example 29, 1,6-Diphenyl-2(S),5(S)-di[N-[2(S)-N(6-methylpyrid-2-ylmethoxycarbonyl)amino-3-methylbutanoyl]amino]-3,4-cis-epoxyhexane]
7 | 5350 | N#CC[C@H](NC(=O)c1ccc2ccccc2n1)C(=O)N[C@@H](Cc1ccccc1)[C@@H]1O[C@@H]1[C@H](Cc1ccccc1)NC(=O)[C@H](CC#N)NC(=O)c1ccc2ccccc2n1 [Example 3, 1,6-Diphenyl-2(S),5(S)-di[N-[2(S)-N(quinolin-2-ylcarbonyl)amino-3-cyanopropanoyl]amino]-3,4-cis-epoxyhexane]
8 | 206 | CC[C@H](NC(=O)N(C)Cc1ccccn1)C(=O)N[C@@H](CCCc1ccccc1)[C@@H]1O[C@@H]1[C@H](CCCc1ccccc1)NC(=O)[C@H](CC)NC(=O)N(C)Cc1ccccn1 [Example 37, 1,10-Diphenyl-4(S),7(S)-di[N-[2(S)-N-[[N(methyl)-N(pyrid-2-ylmethyl)amino]carbonyl]aminobutanoyl]amino]-5,6-cis-epoxydecane]
9 | 14.4 | CC[C@H](NC(=O)OCc1ccccc1)C(=O)N[C@@H](Cc1ccccc1)[C@@H]1O[C@@H]1[C@H](Cc1ccccc1)NC(=O)[C@H](CC)NC(=O)OCc1ccccc1 [Example 2, 1,6-Diphenyl-2(S),5(S)-di[N-[2(S)-N(benzyloxycarbonyl)aminobutanoyl]amino]-3,4-cis-epoxyhexane]
10 | 32.4 | CC[C@H](C)[C@H](NC(=O)NCc1ccccn1)C(=O)N[C@@H](Cc1ccccc1)[C@@H]1O[C@@H]1[C@H](Cc1ccccc1)NC(=O)[C@@H](NC(=O)NCc1ccccn1)[C@@H](C)CC [Example 31]
11 | 2880 | CC(C)C[C@H](NC(=O)OCc1ccccn1)C(=O)N[C@@H](Cc1ccccc1)[C@@H]1O[C@@H]1[C@H](Cc1ccccc1)NC(=O)[C@H](CC(C)C)NC(=O)OCc1ccccn1 [Example 13, 1,6-Diphenyl-2(S),5(S)-di[N-[2(S)-N(pyrid-2-ylmethoxycarbonyl)amino-4-methylpentanoyl]amino]-3,4-cis-epoxyhexane]
12 | 382 | CC(C)(C)[C@H](NC(=O)OCc1ccc2ccccc2n1)C(=O)N[C@@H](Cc1ccccc1)[C@@H]1O[C@@H]1[C@H](Cc1ccccc1)NC(=O)[C@@H](NC(=O)OCc1ccc2ccccc2n1)C(C)(C)C [Example 30]
13 | 84.2 | O=C(N[C@@H](Cc1c[nH]cn1)C(=O)N[C@@H](Cc1ccccc1)[C@@H]1O[C@@H]1[C@H](Cc1ccccc1)NC(=O)[C@H](Cc1c[nH]cn1)NC(=O)OCc1ccccc1)OCc1ccccc1 [Example 9, 1,6-Diphenyl-2(S),5(S)-di[N-[2(S)-N(benzyloxycarbonyl)amino-3-imidazol-4-yl-propanoyl]amino]-3,4-cis-epoxyhexane]
14 | 8260 | O=C(N[C@@H](Cn1cccn1)C(=O)N[C@@H](Cc1ccccc1)[C@@H]1O[C@@H]1[C@H](Cc1ccccc1)NC(=O)[C@H](Cn1cccn1)NC(=O)OCc1ccccc1)OCc1ccccc1 [Example 7, 1,6-Diphenyl-2(S),5(S)-di[N-[2(S)-N(benzyloxycarbonyl)amino-3-pyrazol-1-ylpropanoyl]amino]3,4-cis-epoxyhexane]

Same assay, conditions: read-out: Fluorescence Assay average IC50 (marked *) (converted)

Row | IC50 [nM] | SMILES
15 | 59.9 | CC(C)[C@H](NC(=O)OCc1ccc2ccccc2n1)C(=O)N[C@@H](Cc1ccccc1)[C@@H]1O[C@@H]1[C@H](Cc1ccccc1)NC(=O)[C@@H](NC(=O)OCc1ccc2ccccc2n1)C(C)C [Example 4, 1,6-Diphenyl-2(S),5(S)-di[N-[2(S)-N[(quinolin-2-ylmethoxy)carbonyl]amino-3-methylbutanoyl]amino]-3,4-cis-epoxyhexane]
16 | 8.36 | CC[C@H](NC(=O)N(C)Cc1ccc2ccccc2n1)C(=O)N[C@@H](Cc1ccccc1)[C@@H]1O[C@@H]1[C@H](Cc1ccccc1)NC(=O)[C@H](CC)NC(=O)N(C)Cc1ccc2ccccc2n1 [Example 18, 1,6-Diphenyl-2(S),5(S)-di[N-[2(S)-N-[[N(methyl)-N(quinolin-2-ylmethyl)amino]carbonyl]aminobutanoyl]amino]-3,4-cis-epoxyhexane]
17 | 181 | CC[C@H](NC(=O)N(C)Cc1ccc2ccccc2n1)C(=O)N[C@@H](Cc1ccc2ccccc2c1)[C@@H]1O[C@@H]1[C@H](Cc1ccc2ccccc2c1)NC(=O)[C@H](CC)NC(=O)N(C)Cc1ccc2ccccc2n1 [Example 32]
